Where two headings read alike, the source gives them in different places.
Key:
Assay type in all cases: biochemical
[1] = target: T1, CLK2 (Cdc2-like kinase 2) (Homo sapiens, UniProt P49760); test: Z'LYTE FRET peptide kinase assay
T1 construct: commercial enzyme of Thermo Fisher SelectScreen service
Text: Z'LYTE FRET peptide kinase assay on CLK2 (Cdc2-like kinase 2)

[2] = target: T2, CLK3 (Homo sapiens, UniProt P49761); test: kinase selectivity panel
T2 construct: kinase selectivity panel enzyme
T2 sequence (P49761 whole entry): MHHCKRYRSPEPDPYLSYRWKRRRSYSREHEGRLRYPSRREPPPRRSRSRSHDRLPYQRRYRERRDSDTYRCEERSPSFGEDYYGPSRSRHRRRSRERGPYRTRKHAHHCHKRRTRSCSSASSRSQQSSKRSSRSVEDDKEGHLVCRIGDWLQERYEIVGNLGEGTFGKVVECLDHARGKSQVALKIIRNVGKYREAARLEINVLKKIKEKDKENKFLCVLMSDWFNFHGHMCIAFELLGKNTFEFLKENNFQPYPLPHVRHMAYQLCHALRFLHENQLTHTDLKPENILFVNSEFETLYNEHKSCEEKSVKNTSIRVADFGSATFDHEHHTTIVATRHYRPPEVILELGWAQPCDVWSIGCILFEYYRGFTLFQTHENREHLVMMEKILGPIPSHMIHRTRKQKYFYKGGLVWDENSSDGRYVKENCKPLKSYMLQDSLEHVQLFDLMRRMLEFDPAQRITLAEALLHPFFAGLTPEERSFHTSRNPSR

[3] = target: T3, TTK (Threonine tyrosine kinase; Monopolar Spindle 1, Mps1) (Homo sapiens, UniProt P33981); test: kinase selectivity panel
T3 construct: kinase selectivity panel enzyme
T3 sequence (P33981 1-857): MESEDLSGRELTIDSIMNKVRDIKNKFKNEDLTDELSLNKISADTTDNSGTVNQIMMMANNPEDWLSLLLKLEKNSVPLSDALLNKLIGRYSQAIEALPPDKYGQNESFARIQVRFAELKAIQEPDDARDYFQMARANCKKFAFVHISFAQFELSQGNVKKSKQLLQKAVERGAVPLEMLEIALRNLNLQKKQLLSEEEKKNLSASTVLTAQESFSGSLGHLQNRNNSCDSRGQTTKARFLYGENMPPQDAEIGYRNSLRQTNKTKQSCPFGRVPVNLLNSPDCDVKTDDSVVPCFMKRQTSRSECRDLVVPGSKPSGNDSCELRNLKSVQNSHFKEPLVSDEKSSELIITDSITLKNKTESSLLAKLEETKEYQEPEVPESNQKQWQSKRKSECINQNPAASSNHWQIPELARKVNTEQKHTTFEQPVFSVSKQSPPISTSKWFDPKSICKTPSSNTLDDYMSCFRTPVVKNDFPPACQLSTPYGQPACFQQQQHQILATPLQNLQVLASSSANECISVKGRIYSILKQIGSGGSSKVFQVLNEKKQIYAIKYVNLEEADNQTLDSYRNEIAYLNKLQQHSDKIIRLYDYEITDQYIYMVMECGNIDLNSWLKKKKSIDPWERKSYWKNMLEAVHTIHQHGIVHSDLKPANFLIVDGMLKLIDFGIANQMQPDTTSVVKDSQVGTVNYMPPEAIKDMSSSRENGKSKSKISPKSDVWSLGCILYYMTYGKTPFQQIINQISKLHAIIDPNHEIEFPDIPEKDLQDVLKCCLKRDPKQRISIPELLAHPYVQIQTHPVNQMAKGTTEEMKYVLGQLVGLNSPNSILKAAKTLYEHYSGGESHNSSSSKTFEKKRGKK

T1 sequence (P49760 whole entry): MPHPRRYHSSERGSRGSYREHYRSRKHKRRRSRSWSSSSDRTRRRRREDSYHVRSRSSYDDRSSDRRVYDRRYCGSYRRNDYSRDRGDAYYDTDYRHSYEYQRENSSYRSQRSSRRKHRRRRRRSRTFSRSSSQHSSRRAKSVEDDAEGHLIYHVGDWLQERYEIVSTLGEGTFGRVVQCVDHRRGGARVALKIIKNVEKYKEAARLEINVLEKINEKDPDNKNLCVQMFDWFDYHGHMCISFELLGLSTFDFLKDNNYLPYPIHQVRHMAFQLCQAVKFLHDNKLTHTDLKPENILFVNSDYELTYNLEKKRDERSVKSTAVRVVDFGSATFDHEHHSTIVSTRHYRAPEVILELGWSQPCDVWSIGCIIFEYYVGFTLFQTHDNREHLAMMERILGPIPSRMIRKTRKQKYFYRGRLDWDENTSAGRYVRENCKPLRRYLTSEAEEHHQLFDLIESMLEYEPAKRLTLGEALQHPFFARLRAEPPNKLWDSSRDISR

Row | IC50 [1] [µM] | inhibition at 1 µM [2] [%] | inhibition at 1 µM [3] [%] | IC50 ([1]; ATP and peptide substrate, 1% DMSO, room temperature, 60 min) [µM] | Compound
1 | 0.62 | 46 | 43 |  | CC(c1ccccc1)n1c2ccccc2c2c(N)ncnc21 (centres unmarked) [compound 670551, Compound 670551]
2 | 2.25 |  |  |  | Nc1ncnc2oc(-c3ccccc3)c(-c3ccccc3)c12 [compound 153298, 153298]
3 |  |  |  | 1.33 | CSc1nc(Cl)cc(Sc2nc(N)nc3nc[nH]c23)n1 [compound 51564, 51564]
